Marks after values point to notes of the source that are not given here.
Columns and labels:
sC5b-9 = experiment: Complement activation: sC5b-9 levels in human cells contacted in vitro with nanoparticle compositions; assay type: cell-based
Description: Complement activation assists in the clearance of pathogens from an organism. As it is undesirable that a subject's body recognize a nanoparticle composition as a foreign invader, low complement system activation upon administration of such a composition is preferred. The complex sC5b-9 is a marker for the activation of the complement system. Thus, human cells were contacted in vitro with nanoparticle compositions according to Table 1A and were evaluated for sC5b-9 levels.

Sprague Dawley rat liver = experiment: Lipid remaining in rat liver tissue 48 h post dose (LC-MS/MS); assay type: in vivo; conditions: Sprague Dawley rat liver 48 h after 2 mg/kg bolus dose mRNA
Source text: Similar results were obtained in the Sprague Dawley rats using human erythropoietin (hEPO) encoding mRNA (FIG. 29C). […] Compound 18 and compound 25 provided a good balance of delivery efficiency and pharmacokinetics.

[1] = Alanine aminotransferase (ALT) and aspartate aminotransferase (AST) in rat after intravenous administration; assay type: in vivo
Description: (§1) Table 19A summarizes the hEPO expression, IP-10 induction, liver and spleen levels, and alanine aminotransferase (ALT) and aspartate aminotransferase (AST) measured upon intravenous administration of formulations including Compounds 48, 49, and 50 to rat at 0.2 and 2 mpk and hEPO mRNA. hEPO concentrations were measured 6 hours after administration, while cytokine induction and liver and spleen levels were measured 48 hours after administration. hEPO and IP-10 concentrations are presented in pg/ml, while liver levels are provided in ng/g. ALT and AST levels are presented in international units.

IP-10 = experiment: Cytokine induction (IP-10) in rats after intravenous administration; assay type: in vivo, rat; conditions: for IP-10 induction: rat, 48 hours
Description: The expression of hEPO and cytokine induction in rats intravenously administered a nanoparticle composition at a dose of 2.0 mpk was measured at 6 h.
as §1

[2] = pKa / apparent pKa of nanoparticle compositions; conditions: Table 1B; formulated with hEPO mRNA
hEPO mRNA [3] = experiment: Pretreatment study (methotrexate or dexamethasone) with MC3 formulation in Cynomolgus monkeys; assay type: in vivo; conditions: once weekly for four weeks, absence of any pretreatment
Source text: In order to combat negative effects, nanoparticle compositions are co-administered with one or more substances (e.g., co-medications or additional therapeutic and/or prophylactics) to subjects. Potentially useful additional therapeutic and/or prophylactics include steroids (e.g., corticosteroids), anti-histamines, H1 receptor blockers, H2 receptor blockers, anti-inflammatory compounds, statins, BTK inhibitors, S1P1 agonists, glucocorticoid receptor modulators (GRMs), and estradiols. Non-human primates are pretreated with one or more additional therapeutic agents selected from dexamethasone and acetaminophen. The additional therapeutic agent is administered either 24 hours, 1 hour, or both 24 hours and 1 hour before administration of a nanoparticle composition. Cytokine profiles, inflammation, and other parameters are measured and compared to evaluate the effectiveness of pretreatment
The effects of pretreatment to non-human primates were evaluated using a standard MC3 formulation including an mRNA encoding hEPO. Male monkeys were administered the nanoparticle composition once weekly for four weeks at a dose rate of 5 ml/kg/h and were pretreated with either methotrexate or dexamethasone.
As shown, in the absence of any pretreatment, maximal expression levels decreased nearly 70% over the course of the study.

hEPO mRNA [4] = experiment: hEPO expression and pharmacokinetic parameters after intravenous infusion to non-human primates; assay type: in vivo; conditions: 0.01 mpk, iv infusion 60 minutes, cynomolgus monkeys
[5] = pH, osmolality and zeta potential of nanoparticle compositions; assay type: physicochemical; conditions: nanoparticle composition with hEPO mRNA (Table 30)
[6] = Tolerability (AST, ALT, clinical signs, hematology) in non-human primates; assay type: in vivo; conditions: single dose 0.05, 0.3 or 1.0 mpk, intravenous infusion 60 minutes
Description: (§2) The tolerability and efficacy of nanoparticle compositions to non-human primates was also investigated using a sample formulation including Compound 18. The formulation was prepared according to the standard MC3 formulation described above and included an hEPO mRNA. Primates were administered a single dose of 0.05 (Group 1), 0.3 (Group 2), or 1.0 (Group 3) mpk via intravenous infusion for 60 minutes. Three primates were administered each dose. Expression of hEPO was measured prior to dosing and at 2, 6, 24, 48, and 96 hours post-treatment (Table 26). Table 28 includes levels of indicators of complement activation, while Table 29 includes cytokine induction data.
In general, lower doses were better tolerated. High doses induced body temperature elevation and hunched posture, which is similar to the behavior observed for primates administered higher doses of MC3 formulations.

LDLr knockout mice = experiment: Expression study in LDLr knockout mice; assay type: in vivo; conditions: compound 18 based LNPs
[7] = Protein expression with nanoparticle composition containing Compound 18 versus MC3 counterpart, 0.1 and 0.3 mpk; assay type: in vivo; conditions: dose response between 0.1 and 0.3 mpk
[8] = Complement activation indicators in non-human primates; assay type: in vivo
Description: as §2

With `CCCCCC=CCC=CCCCCCCCCC(CCCCCCCCC=CCC=CCCCCC)OC(=O)CCCN(C)C` (stereo not drawn) [MC3, heptatriaconta-6,9,28,31-tetraen-19-yl 4-(dimethylamino)butanoate, reference compound] the “Fold increase in sC5b-9 levels versus saline” value (sC5b-9) was 0.73, the “% dose remaining Rat liver tissue, 48 h” value (Sprague Dawley rat liver) was 61^e % and the ALT ([1]; intravenous 0.2 mpk) was 63.6 international units. For the same molecule, the AST ([1]; intravenous 0.2 mpk) was 134.8 international units, the ALT ([1]; intravenous 2 mpk) was 79.6 international units and the AST ([1]; intravenous 2 mpk) was 139.0 international units. The IP-10 induction (IP-10; intravenous 0.2 mpk) was 2 pg/mL, the IP-10 induction (IP-10; intravenous 2 mpk) was 596 pg/mL and the IP-10 (IP-10; rats, intravenous 2.0 mpk, hEPO nanoparticle compositions, 6 hours) was 688.3 pg/mL. The “Apparent pKa” value [2] was 6.35, the “Decrease of maximal expression levels over the course of the study” value (hEPO mRNA [3]) was roughly 70% and the “AUC Lipid/MC3 Ratio” value (hEPO mRNA [4]) was 1.0. It also gave an Osmolality [5] of 318 mOsm/kg, a Zeta potential [5] of −3.64 mV and a pH [5] of 7.52.

With `CCCCCCCCCOC(=O)CCCCCCCN(CCO)CCCCCCCC(=O)OC(CCCCCCCC)CCCCCCCC` [Compound 18, Heptadecan-9-yl 8-((2-hydroxyethyl)(8-(nonyloxy)-8-oxooctyl)amino)octanoate] the Tolerability [6] was “tolerated similarly to the MC3 formulation”, the “expression in LDLr knockout mice” value (LDLr knockout mice) was “almost complete loss in expression” and the “0.3 mpk AUC relative to 0.1 mpk dose AUC” value [7] was “about three times”. The Bb fragment ([8]; Group 1 (0.05 mpk), 2 h) was 5341 ng/mL, the C5b9 ([8]; Group 1 (0.05 mpk), 2 h) was 1959 ng/mL and the Bb fragment ([8]; Group 1 (0.05 mpk), 6 h) was 3037 ng/mL. For the same molecule, the C3a ([8]; Group 1 (0.05 mpk), 6 h) was 12385 ng/mL, the C5b9 ([8]; Group 1 (0.05 mpk), 6 h) was 786 ng/mL and the Bb fragment ([8]; Group 1 (0.05 mpk), 24 h) was 1496 ng/mL. The C3a ([8]; Group 1 (0.05 mpk), 24 h) was 11596 ng/mL, the Bb fragment ([8]; Group 1 (0.05 mpk), Day 5) was 1273 ng/mL and the C3a ([8]; Group 1 (0.05 mpk), Day 5) was 11945 ng/mL. It also gave a Bb fragment ([8]; Group 1 (0.05 mpk), Predose) of 1375 ng/mL, a C5b9 ([8]; Group 1 (0.05 mpk), Predose) of 169 ng/mL and a Bb fragment ([8]; Group 2 (0.3 mpk), 2 h) of 5356 ng/mL. For the same molecule, the C5b9 ([8]; Group 2 (0.3 mpk), 2 h) was 393 ng/mL, the Bb fragment ([8]; Group 2 (0.3 mpk), 6 h) was 7157 ng/mL and the C3a ([8]; Group 2 (0.3 mpk), 6 h) was 32436 ng/mL. For the same molecule, the C5b9 ([8]; Group 2 (0.3 mpk), 6 h) was 1333 ng/mL, the Bb fragment ([8]; Group 2 (0.3 mpk), 24 h) was 3680 ng/mL and the C3a ([8]; Group 2 (0.3 mpk), 24 h) was 19721 ng/mL. It also gave a Bb fragment ([8]; Group 2 (0.3 mpk), Day 5) of 2400 ng/mL, a C3a ([8]; Group 2 (0.3 mpk), Day 5) of 16207 ng/mL and a Bb fragment ([8]; Group 2 (0.3 mpk), Predose) of 1461 ng/mL. It also gave a C5b9 ([8]; Group 2 (0.3 mpk), Predose) of 157 ng/mL, a Bb fragment ([8]; Group 3 (1.0 mpk), 2 h) of 8849 ng/mL and a C5b9 ([8]; Group 3 (1.0 mpk), 2 h) of 801 ng/mL. For the same molecule, the Bb fragment ([8]; Group 3 (1.0 mpk), 6 h) was 12820 ng/mL, the C3a ([8]; Group 3 (1.0 mpk), 6 h) was 51996 ng/mL and the C5b9 ([8]; Group 3 (1.0 mpk), 6 h) was 2928 ng/mL. The Bb fragment ([8]; Group 3 (1.0 mpk), 24 h) was 8601 ng/mL, the C3a ([8]; Group 3 (1.0 mpk), 24 h) was 35843 ng/mL and the Bb fragment ([8]; Group 3 (1.0 mpk), Day 5) was 2834 ng/mL. For the same molecule, the C3a ([8]; Group 3 (1.0 mpk), Day 5) was 19101 ng/mL, the Bb fragment ([8]; Group 3 (1.0 mpk), Predose) was 1529 ng/mL and the C5b9 ([8]; Group 3 (1.0 mpk), Predose) was 238 ng/mL.

Source: patent US10857105B2, “Compounds and compositions for intracellular delivery of therapeutic agents” (ModernaTX, Inc., priority 2017, dated 2020)
